# Test results published in US20030129224A1, “Lipid carrier compositions and methods for improved drug retention” (priority 2001, published 2003).
# How the values were obtained:
# [1] = Vincristine retention in liposomes in blood after intravenous injection of Balb/c mice; assay type: in vivo; conditions: i.v., 1, 4, 24 h
# Description: Solutions of lipids in chloroform were combined to give a 95:5 molar ratio of DSPC/DSPE-PEG2000 or a 55:45 molar ratio of DSPC/Cholesterol, with trace amounts of ^14C-cholesteryl hexadecyl ether (^14C-CHE). The resulting mixtures were dried under a stream of nitrogen gas and placed in a vacuum pump overnight. The samples were hydrated at 70° C. with either 300 mM citrate, pH 4.0 (about 600 milliosmoles/kg (mOsm/kg)) or 150 mM citrate buffer, pH 4.0 (about 300 mOsm/kg) and passed through an extrusion apparatus (Northern Lipids Inc., Vancouver, BC) ten times with two 100 nm pore size polycarbonate filters at 70° C. Average liposome size was determined by quasi-elastic light scattering using a NICOMP 370 submicron particle sizer operating at a wavelength of 632.8 nm. The resulting liposomes were applied to a Sephadex G50 column equilibrated with HBS (20 mM HEPES, 150 mM NaCl, about 320 mOsm/kg), pH 7.45 to exchange the external liposomal buffer. […]
# Vincristine-containing liposomes were administered intravenously to Balb/c mice at a lipid dose of 165 μmoles/kg in a final volume of 200 μL immediately after preparation (within 1-2 hrs). […] Lipid and vincristine levels were quantified by liquid scintillation counting and the values were reported as the mean±standard deviation (SD).
# [2] = Daunorubicin retention in liposomes in blood after intravenous injection (time course); assay type: in vivo, Balb/c mice; conditions: low-cholesterol liposomes DSPC/DSPE-PEG2000 (95:5); citrate 600 mOsm/kg (300 mM) in relation to 300 mOsm/kg (150 mM); i.v.; 1, 4, 24 h
# Description: DSPC/DSPE-PEG2000 liposomes (95:5 mole ratio) containing 150 or 300 mM citrate (300 or 600 mOsm/kg), pH 4 and DSPC/Cholesterol (55:45 mole ratio) and DSPC/Cholesterol/DSPE-PEG2000 (50:45:5 mole ratio) liposomes containing 150 mM citrate, pH 4 were prepared as described in Example 1. Liposomes were subsequently combined with daunorubicin at a 0.2:1 drug to lipid mole ratio. To facilitate drug loading, the mixtures were incubated at 40° C. for 60 minutes.
# The resulting daunorubicin-containing liposomes were administered to Balb/c female mice at a lipid dose of 165 μmoles/kg as detailed above. Blood samples were removed at 1, 4 and 24 hours post administration by cardiac puncture (3 mice per time point). Lipid levels were determined by liquid scintillation counting. Daunorubicin was extracted from plasma samples and quantified as follows: a defined volume of plasma was adjusted to 200 μL with distilled water followed by addition of 600 μL of distilled water, 100 μL of 10% SDS and 100 μL of 10 mM H2SO4. This solution was mixed and 2 mLs of 1:1 isopropanol/chloroform was added followed by vortexing. […] The bottom organic layer was removed and assayed for fluorescence intensity at 500 nm as the excitation wavelength (2.5 nm bandpass) and 550 nm as an emission wavelength (10 nm bandpass) and using an absorbance wavelength of 480 nm.
# [3] = Daunorubicin retention 4 hours after intravenous injection, varying internal citrate; assay type: in vivo, Balb/c mice; conditions: DSPC/DSPE-PEG2000 (95:5); 100, 150 and 200 mM internal citrate (about 200, 300, 400 mOsm/kg), versus 250 and 300 mM; 4 hours after i.v.
# Description: Daunorubicin was loaded at a 0.2:1 drug-to-lipid mole ratio with the methods detailed above into each of the five liposomal formulations. The resulting liposomes were administered to female Balb/c mice at a lipid dose of 165 μmoles/kg in a final volume of 200 μL immediately after preparation (within 1-2 hrs). Blood samples were removed 4 hours after administration by cardiac puncture (3 mice per time point). Lipid and daunorubicin levels were determined as described previously and percent initial drug-to-lipid ratio was reported as the mean±SD.
# [4] = Idarubicin retention in liposomes in blood after intravenous injection; assay type: in vivo, Balb/c mice; conditions: cholesterol-free DSPC/DSPE-PEG2000 (95:5); 300 mM citrate (>500 mOsm/kg) in relation to 100 and 150 mM (<500 mOsm/kg); i.v.; 0.5-24 h
# Description: DSPC/DSPE-PEG2000 (95:5 mole ratio) liposomes containing the non-exchangeable marker ^3H-CHE were prepared as described in Example 1, except that lipid films were hydrated with 100, 150, 200, 250 or 300 mM citrate, pH 4.0 (corresponding to osmolarity levels of about 200, 300, 400, 500 or 600 mOsm/kg, respectively).
# DSPC/DSPE-PEG2000 (95:5 mole ratio) liposomes prepared with 100, 150 and 300 mM citrate were also loaded with idarubicin at a drug to lipid mole ratio of 0.25:1. Loading was facilitated by incubating the drug and liposomes at 37° C. for 60 minutes. Liposomes were administered to Balb/c mice as indicated and blood samples were removed by cardiac puncture at 0.5, 1, 2, 4 and 24-hours post administration (3 mice per time point). Idarubicin concentration was quantitated using fluorescence intensity at 485 nm as the excitation wavelength and 535 nm as an emission wavelength and using an absorbance wavelength of 482 nm.
# [5] = Freeze/thaw stability of DSPC/DSPG liposomes (drug-to-lipid ratio and size) at -20 or -70 C for 24 hours; assay type: physicochemical; conditions: 0-20 mole % cholesterol, 250 mM CuSO4 internal, frozen at -20 C and -70 C for 24 hours
# Description: FUDR and irinotecan were loaded into cholesterol-free liposomes containing a low osmolarity internal solution and drug retention and liposome size were measured prior to and after freezing. DSPC/DSPG liposomes containing 0-20 mole % cholesterol, 20 mole % DSPG and passively entrapped FUDR were prepared as described previously and hydrated in 250 mM CuSO4 (<500 mOsm/kg). The MLVs were extruded at 70° C. as detailed above and buffered exchanged into saline and then into 300 mM sucrose, 20 mM Hepes, 30 mM EDTA (SHE), pH 7.4 using a hand-held tangential flow column. The sample was then further exchanged into 300 mM sucrose, 20 mM Hepes, pH 7.4 to remove residual EDTA. The liposomes were subsequently loaded with irinotecan at a drug-to-lipid mole ratio of 0.1:1 by mixing the two solutions at 50° C. for five minutes. The dual-loaded liposomes were then buffered exchanged into HBS using tangential flow to remove any unencapsulated drug.
# The influence of freezing on liposome stability was determined by freezing the liposomes at either −20° C. or −70° C. for 24 hours. […] Lipid and FUDR levels were quantified using liquid scintillation and absorbance at 370 nm was used to determine irinotecan concentration. Particle sizing of the liposomes was also determined prior to and after freezing using quasi-elastic light scattering.
smiles,measurement,setting,value
CC[C@]1(O)C[C@H]2CN(CCc3c([nH]c4ccccc34)[C@@](C(=O)OC)(c3cc4c(cc3OC)N(C=O)[C@H]3[C@@](O)(C(=O)OC)[C@H](OC(C)=O)[C@]5(CC)C=CCN6CC[C@]43[C@@H]65)C2)C1 [vincristine],retention of vincristine (percent initial vincristine-to-lipid weight ratio in the blood),"[1]; cholesterol containing liposomes DSPC/cholesterol (55:45), 150 vs 300 mM citrate",independent of the osmolarity of the intraliposomal solution
same,retention of vincristine (percent initial vincristine-to-lipid weight ratio in the blood),"[1]; low-cholesterol liposomes DSPC/DSPE-PEG2000 (95:5), internal citrate 300 mOsm/kg (150 mM) compared to 600 mOsm/kg (300 mM)",significantly enhanced
COc1cccc2c1C(=O)c1c(O)c3c(c(O)c1C2=O)C[C@@](O)(C(C)=O)C[C@@H]3O[C@H]1C[C@H](N)[C@H](O)[C@H](C)O1 [daunorubicin],daunorubicin retention (percent initial daunorubicin-to-lipid ratio remaining in the blood),[2],compromised
same,retention of daunorubicin (percent initial drug-to-lipid ratio in the blood),[3],optimal retention
CC(=O)[C@]1(O)Cc2c(O)c3c(c(O)c2[C@@H](O[C@H]2C[C@H](N)[C@H](O)[C@H](C)O2)C1)C(=O)c1ccccc1C3=O [idarubicin],idarubicin retention (idarubicin-to-lipid mole ratio in the blood),[4],significantly decreased
CCc1c2c(nc3ccc(OC(=O)N4CCC(N5CCCCC5)CC4)cc13)-c1cc3c(c(=O)n1C2)COC(=O)[C@]3(O)CC [irinotecan],retention of irinotecan after freezing (drug-to-lipid ratio),[5],effectively retained
